Assay results taken from article PMC10150354, “Linearization of the Brevicidine and Laterocidine Lipopeptides Yields Analogues That Retain Full Antibacterial Activity” (Journal of Medicinal Chemistry, 2023).
≈ marks a conversion by molar mass, not a printed value. Where a SMILES comes first, the peptide text is derived from it. Bridges are numbered along the chain shown (N, C = ends). [ ]: non-standard residue; d: D form. The star is where a group is joined. ξ: configuration not given here. Octanoyl(7-Me) = CC(C)CCCCCC(=O)*; Hexanoyl(4ξ-Me) = CCC(C)CCC(=O)*; dOrn = NCCC[C@@H](N)C(=O)O; Orn = NCCC[C@H](N)C(=O)O; Dap = NC[C@H](N)C(=O)O

Experiments:
[1] = system: A. baumannii ATCC 17961; format: cell-based, Acinetobacter baumannii; details: microbroth dilution per CLSI, MHB, 18 h at 37 °C, visual inspection, three technical replicates
Procedure, shortened: (§1)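 MIC taken as the lowest concentration with no visible growth after 18 h, 37 °C, shaking, three technical replicates. Peptides were serially diluted in MHB and received cells from TSB cultures at OD600 ~0.5, diluted to 2 × 10^5 CFU/mL (kanamycin selection for the mcr-1 E. coli), following CLSI guidelines.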

[2] = system: S. aureus USA300; format: cell-based, Staphylococcus aureus; details: microbroth dilution per CLSI, MHB, 18 h at 37 °C, visual inspection, three technical replicates
Procedure, shortened: as §1

[3] = system: E. coli ATCC 25922; format: cell-based, Escherichia coli; details: for Antibacterial activity (MIC) E. coli ATCC 25922: microbroth dilution per CLSI, MHB, 18 h at 37 °C, visual inspection, three technical replicates; for MIC (µg/mL) against E. coli (ATCC 25922): (Supplement 2)
Procedure, shortened: as §1

[4] = system: E. coli (MCR-1); format: cell-based, Escherichia coli; details: microbroth dilution per CLSI, MHB, 18 h at 37 °C, visual inspection, three technical replicates, E. coli 25922 carrying mcr-1
Procedure, shortened: as §1

[5] = system: P. aeruginosa PAO1; format: cell-based, Pseudomonas aeruginosa; details: microbroth dilution per CLSI, MHB, 18 h at 37 °C, visual inspection, three technical replicates
Procedure, shortened: as §1

[6] = system: K. pneumoniae ATCC 13883; format: cell-based, Klebsiella pneumoniae; details: microbroth dilution per CLSI, MHB, 18 h at 37 °C, visual inspection, three technical replicates
Procedure, shortened: as §1

Compound	Antibacterial activity (MIC) A. baumannii ATCC 17961 [1]	Antibacterial activity (MIC) S. aureus USA300 [2]	Antibacterial activity (MIC) E. coli ATCC 25922 [3]	Antibacterial activity (MIC) E. coli (MCR-1) [4]	Antibacterial activity (MIC) P. aeruginosa PAO1 [5]	Antibacterial activity (MIC) K. pneumoniae ATCC 13883 [6]	MIC (µg/mL) against E. coli (ATCC 25922) [3]
CC[C@H](C)[C@H](NC(=O)[C@@H](NC(=O)[C@H](Cc1c[nH]c2ccccc12)NC(=O)[C@@H](CCCN)NC(=O)CNC(=O)[C@H](CCCN)NC(=O)[C@@H](CCCN)NC(=O)[C@@H](Cc1c[nH]c2ccccc12)NC(=O)[C@@H](Cc1ccc(O)cc1)NC(=O)[C@@H](CO)NC(=O)CCCCCC(C)C)[C@@H](C)O)C(=O)N[C@@H](C)C(=O)NCC(=O)NCC(N)=O [LL(Ala11)-NH2 (39)] ({Octanoyl(7-Me)}-[dS][dY][dW][dOrn][Orn]G[dOrn]WTIAGG-NH2)	8 µg/mL	>32 µg/mL	8 µg/mL	8 µg/mL	4 µg/mL	8 µg/mL	–
CC[C@H](C)[C@H](NC(=O)[C@H](CO)NC(=O)[C@H](Cc1c[nH]c2ccccc12)NC(=O)[C@@H](CCCN)NC(=O)CNC(=O)[C@H](CCCN)NC(=O)[C@@H](CCCN)NC(=O)[C@@H](Cc1c[nH]c2ccccc12)NC(=O)[C@@H](Cc1ccc(O)cc1)NC(=O)[C@@H](CO)NC(=O)CCCCCC(C)C)C(=O)N[C@@H](CC(N)=O)C(=O)NCC(=O)NCC(N)=O [LL(Ser9)-NH2 (46)] ({Octanoyl(7-Me)}-[dS][dY][dW][dOrn][Orn]G[dOrn]WSINGG-NH2)	8 µg/mL	>32 µg/mL	4 µg/mL	8 µg/mL	4 µg/mL	4 µg/mL	4 µg/mL (≈ 2.49 µM)
CC[C@H](C)[C@H](NC(=O)[C@@H](NC(=O)[C@H](Cc1c[nH]c2ccccc12)NC(=O)[C@@H](CCCN)NC(=O)CNC(=O)[C@H](CCCN)NC(=O)[C@@H](CCCN)NC(=O)[C@@H](Cc1c[nH]c2ccccc12)NC(=O)[C@@H](Cc1ccc(O)cc1)NC(=O)[C@@H](CO)NC(=O)CCCCCC(C)C)[C@@H](C)O)C(=O)N[C@@H](CC(N)=O)C(=O)NCC(=O)NCC(=O)O [LL-OH (4)] ({Octanoyl(7-Me)}-[dS][dY][dW][dOrn][Orn]G[dOrn]WTINGG-OH)	16 µg/mL	>32 µg/mL	8 µg/mL	16 µg/mL	8 µg/mL	8 to 16 µg/mL	–
CC[C@H](C)[C@@H]1NC(=O)[C@@H](NC(=O)[C@H](Cc2c[nH]c3ccccc23)NC(=O)[C@@H](CCCN)NC(=O)CNC(=O)[C@H](CCCN)NC(=O)[C@@H](CCCN)NC(=O)[C@@H](Cc2c[nH]c3ccccc23)NC(=O)[C@@H](Cc2ccc(O)cc2)NC(=O)[C@@H](CO)NC(=O)CCCCCC(C)C)[C@@H](C)OC(=O)CNC(=O)CNC(=O)[C@H](CC(N)=O)NC1=O [Lat (2), laterocidine] ({Octanoyl(7-Me)}-[dS][dY][dW][dOrn][Orn]G[dOrn]WTINGG; ester 9-C)	2 µg/mL	>32 µg/mL	2 µg/mL	2 µg/mL	4 µg/mL	2 to 4 µg/mL	–
CC[C@H](C)[C@H](NC(=O)[C@@H](NC(=O)[C@H](Cc1c[nH]c2ccccc12)NC(=O)[C@@H](CCCN)NC(=O)CNC(=O)[C@H](CCCN)NC(=O)[C@@H](CCCN)NC(=O)[C@@H](Cc1c[nH]c2ccccc12)NC(=O)[C@@H](Cc1ccc(O)cc1)NC(=O)[C@@H](CO)NC(=O)CCCCCC(C)C)[C@@H](C)O)C(N)=O [Δ11–13LL-NH2 (12)] ({Octanoyl(7-Me)}-[dS][dY][dW][dOrn][Orn]G[dOrn]WTI-NH2)	4 µg/mL	32 µg/mL	4 µg/mL	4 µg/mL	4 µg/mL	2 µg/mL	–
CC[C@H](C)[C@H](NC(=O)[C@@H](NC(=O)[C@H](Cc1c[nH]c2ccccc12)NC(=O)[C@@H](CCCN)NC(=O)CNC(=O)[C@H](CCCN)NC(=O)[C@@H](C)NC(=O)[C@@H](Cc1c[nH]c2ccccc12)NC(=O)[C@@H](Cc1ccc(O)cc1)NC(=O)[C@@H](CO)NC(=O)CCCCCC(C)C)[C@@H](C)O)C(=O)N[C@@H](CC(N)=O)C(=O)NCC(=O)NCC(N)=O [LL(D-Ala4)-NH2 (32)] ({Octanoyl(7-Me)}-[dS][dY][dW][dA][Orn]G[dOrn]WTINGG-NH2)	32 µg/mL	>32 µg/mL	>32 µg/mL	>32 µg/mL	>32 µg/mL	>32 µg/mL	–
CC[C@H](C)[C@H](NC(=O)[C@@H](NC(=O)[C@H](Cc1c[nH]c2ccccc12)NC(=O)[C@@H](CCCN)NC(=O)CNC(=O)[C@H](CCCN)NC(=O)[C@@H](CCCN)NC(=O)[C@@H](Cc1c[nH]c2ccccc12)NC(=O)[C@@H](Cc1ccc(O)cc1)NC(=O)[C@@H](CO)NC(=O)CCCCCC(C)C)[C@@H](C)O)C(=O)N[C@@H](CC(N)=O)C(=O)N[C@@H](C)C(=O)NCC(N)=O [LL(Ala12)-NH2 (40)] ({Octanoyl(7-Me)}-[dS][dY][dW][dOrn][Orn]G[dOrn]WTINAG-NH2)	8 µg/mL	>32 µg/mL	8 µg/mL	8 µg/mL	8 µg/mL	8 µg/mL	–
CCC(C)CCC(=O)N[C@H](CC(N)=O)C(=O)N[C@H](Cc1ccc(O)cc1)C(=O)N[C@H](Cc1c[nH]c2ccccc12)C(=O)N[C@H](CCCN)C(=O)N[C@@H](CCCN)C(=O)NCC(=O)N[C@H](CCCN)C(=O)N[C@@H](Cc1c[nH]c2ccccc12)C(=O)N[C@@H](CN)C(=O)N[C@H](C(=O)NCC(N)=O)[C@@H](C)CC (some centres unmarked) [Δ12LB (Dap9)-NH2 (64)] ({Hexanoyl(4ξ-Me)}-[dN][dY][dW][dOrn][Orn]G[dOrn]W[Dap]IG-NH2)	16 µg/mL	>32 µg/mL	8 µg/mL	8 µg/mL	4 µg/mL	>32 µg/mL	>32 µg/mL
CC[C@H](C)[C@H](NC(=O)[C@@H](NC(=O)[C@H](Cc1c[nH]c2ccccc12)NC(=O)[C@@H](C)NC(=O)CNC(=O)[C@H](CCCN)NC(=O)[C@@H](CCCN)NC(=O)[C@@H](Cc1c[nH]c2ccccc12)NC(=O)[C@@H](Cc1ccc(O)cc1)NC(=O)[C@@H](CO)NC(=O)CCCCCC(C)C)[C@@H](C)O)C(=O)N[C@@H](CC(N)=O)C(=O)NCC(=O)NCC(N)=O [LL(D-Ala7)-NH2 (35)] ({Octanoyl(7-Me)}-[dS][dY][dW][dOrn][Orn]G[dA]WTINGG-NH2)	32 µg/mL	>32 µg/mL	>32 µg/mL	>32 µg/mL	32 µg/mL	>32 µg/mL	–
CC[C@H](C)[C@H](NC(=O)[C@@H](NC(=O)[C@H](Cc1c[nH]c2ccccc12)NC(=O)[C@@H](CCCN)NC(=O)CNC(=O)[C@H](CCCN)NC(=O)[C@@H](CCCN)NC(=O)[C@@H](Cc1c[nH]c2ccccc12)NC(=O)[C@@H](Cc1ccc(O)cc1)NC(=O)[C@@H](CO)NC(=O)CCCCCC(C)C)[C@@H](C)O)C(=O)N[C@@H](CC(N)=O)C(=O)NCC(N)=O [Δ13LL-NH2 (8)] ({Octanoyl(7-Me)}-[dS][dY][dW][dOrn][Orn]G[dOrn]WTING-NH2)	4 µg/mL	>32 µg/mL	8 µg/mL	8 µg/mL	4 µg/mL	4 to 8 µg/mL	–
CCC(C)CCC(=O)N[C@H](CC(N)=O)C(=O)N[C@H](Cc1ccc(O)cc1)C(=O)N[C@H](Cc1c[nH]c2ccccc12)C(=O)N[C@H](CCCN)C(=O)N[C@@H](CCCN)C(=O)NCC(=O)N[C@H](CCCN)C(=O)N[C@@H](Cc1c[nH]c2ccccc12)C(=O)N[C@@H]1C(=O)N[C@@H]([C@@H](C)CC)C(=O)NCC(=O)N[C@@H](CO)C(=O)O[C@@H]1C (some centres unmarked) [Brev (1), brevicidine] ({Hexanoyl(4ξ-Me)}-[dN][dY][dW][dOrn][Orn]G[dOrn]WTIGS; ester 9-C)	4 µg/mL	>32 µg/mL	4 µg/mL	4 µg/mL	8 µg/mL	2 µg/mL	–
